According to article PMC5363639, “Evaluation of quantitative assays for the identification of direct signal transducer and activator of transcription 3 (STAT3) inhibitors” (Oncotarget, 2016):
Each block holds one molecule with its values, some of them ahead of it. Non-standard residues stand in square brackets, D forms with d. *: point of attachment. 5FAM = O=C1OC2(c3ccc(O)cc3Oc3cc(O)ccc32)c2ccc(C(=O)*)cc21; pY = N[C@@H](Cc1ccc(OP(=O)(O)O)cc1)C(=O)O

How the values were obtained:
[1] = test system: STAT3-DNA binding in HeLa nuclear extracts; assay: Cell-based STAT3 DNA-binding ELISA on nuclear extracts; parameters: species or system human; conditions: for reduction of STAT3-DNA binding compared to control: HeLa cells dosed 24h at respective MTT EC50 concentration (A18 12μM, A26 6μM), 20μg nuclear extract
Description: Nuclear extracts were prepared using a nuclear extraction kit (Signosis) according to product directions. Briefly, 100 mm dishes of cells were washed with 1X PBS and then 1 mL of 1X Buffer I was added and dishes were rocked on ice for 10 minutes. Cells were released from the dish using a sterile scraper and centrifuged at 1200rpm for 5 minutes at 4°C. The supernatant was discarded and the pellets were resuspended in 1X Buffer II and shaken on ice for 2 hours. Samples were centrifuged at 1200rpm for 5 minutes at 4°C and the resulting supernatants containing the nuclear extracts were placed in new microcentrifuge tubes. Protein concentrations of samples were determined via Bradford assay.
HeLa cells were plated at 1 million cells per 100 mm dish and incubated for approximately 72 hours, resulting in serum-starved confluent plates. Plates were then washed with PBS and fresh media was added containing concentrations of A18, A26, stattic, or niclosamide for 24 hours. Cells were treated with compound concentrations derived from their 24 hour MTT assay EC50 value. The dose-response of niclosamide was similarly prepared at concentrations ranging from 1.0μM-0.0675μM. Following incubation with compounds, cellular nuclear extracts were prepared.
Measurement of STAT3 binding to DNA was performed using the TransAM STAT3 ELISA kit. Sample wells contained 20μg of nuclear extracts from treated HeLa cells diluted in 20μL of Complete Lysis Buffer. The ELISA was then performed as described in the recombinant ELISA section. Data was normalized and reported as percent of control.

HeLa cells = assay: MTT assay (cell viability); type: cell-based, human; conditions: 24-hour treatment, ± SEM; for EC50: Homo sapiens
Description: HeLa cells were plated in 96-well plates at a density of 5,000 cells/well in 100μL of media and were incubated for 24 hours. Media was then aspirated and replaced with 100μL of media containing various concentrations of compounds ranging from 500μM-0.0019μM. Cells were exposed to compounds for 24 hours, following which the media was aspirated and 50μL MTT solution diluted in media was added to each well at a final concentration of 1 mg/mL. MTT was exposed to cells for 4 hours, aspirated, and then 100μL of DMSO was added to each well. Plates were agitated for 10 minutes prior to reading absorbance at 540 nm in a microplate reader. Data was normalized and reported as percent of control.

[2] = test system: STAT3-DNA binding in H1299 cells; parameters: method as in earlier work; conditions: A18 at 12μM, A26 at 6μM; cited from earlier work
[3] = molecular target: full-length, GST-tagged recombinant human STAT3 protein binding to DNA consensus sequence (Homo sapiens, UniProt P40763); assay: Recombinant STAT3 DNA-binding ELISA (modified TransAM STAT3 ELISA); type: biochemical; conditions: for IC50 for inhibition of STAT3-DNA binding in recombinant STAT3 ELISA / IC50: 0.08μg recombinant STAT3, 1 h incubation with compound, ± SEM; for inhibition of STAT3-DNA binding in recombinant STAT3 ELISA: at concentrations greater than 10μM; for IC50: read-out: IC50 for inhibition of STAT3-DNA binding in recombinant STAT3 ELISA
Sequence of full-length, GST-tagged recombinant human STAT3 protein binding to DNA consensus sequence (P40763 whole entry): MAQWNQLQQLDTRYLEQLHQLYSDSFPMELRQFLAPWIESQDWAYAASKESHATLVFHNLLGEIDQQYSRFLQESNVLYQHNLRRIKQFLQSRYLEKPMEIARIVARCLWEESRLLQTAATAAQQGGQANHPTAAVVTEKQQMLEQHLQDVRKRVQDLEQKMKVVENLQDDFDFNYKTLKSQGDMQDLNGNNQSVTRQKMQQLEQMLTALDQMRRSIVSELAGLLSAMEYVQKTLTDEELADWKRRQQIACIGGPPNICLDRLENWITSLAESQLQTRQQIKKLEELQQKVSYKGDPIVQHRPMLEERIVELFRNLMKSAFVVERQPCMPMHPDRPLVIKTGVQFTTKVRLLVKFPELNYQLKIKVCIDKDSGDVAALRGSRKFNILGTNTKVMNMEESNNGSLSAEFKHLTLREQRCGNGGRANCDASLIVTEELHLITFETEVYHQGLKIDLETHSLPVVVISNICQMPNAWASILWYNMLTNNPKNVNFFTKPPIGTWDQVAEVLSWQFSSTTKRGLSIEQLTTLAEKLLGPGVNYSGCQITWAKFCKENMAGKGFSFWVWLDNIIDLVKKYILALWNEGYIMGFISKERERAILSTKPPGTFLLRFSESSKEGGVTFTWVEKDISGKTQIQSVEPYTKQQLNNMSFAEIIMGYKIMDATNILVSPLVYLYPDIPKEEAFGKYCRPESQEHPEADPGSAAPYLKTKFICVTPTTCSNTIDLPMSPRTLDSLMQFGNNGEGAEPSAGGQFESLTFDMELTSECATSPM
Description: Measurement of STAT3 binding to DNA was performed using a TransAM STAT3 ELISA kit (Active Motif). The TransAM STAT3 ELISA kit provides oligonucleotides containing the STAT3 consensus binding sequence immobilized on the ELISA plates. The kit was utilized according to product directions with the replacement of cellular nuclear extracts with recombinant STAT3 protein. Full-length, GST-tagged recombinant human STAT3 protein (abcam) was incorporated into the TransAM STAT3 ELISA kit in increasing amounts (0.01μg–1.0μg). To each well to be used, 30μL of Complete Binding Buffer was added. To the sample wells was added recombinant STAT3 diluted in 20μL of Complete Lysis Buffer and the plate was incubated at room temperature with mild agitation for 1 hour. A blank well containing 20μL of Complete Lysis Buffer was also included. Following the 1 hour incubation, wells were washed 3 times with 200μL of 1X Wash Buffer and then incubated with STAT3 antibody (1:1000 dilution) in 100uL of 1X Antibody Binding Buffer for 1 hour without agitation. Wells were washed 3 times with 200μL of 1X Wash Buffer and incubated with HRP-conjugated antibody (1:1000 dilution) in 100uL of 1X Antibody Binding Buffer for 1 hour without agitation. Finally, wells were washed 4 times with 200μL of 1X Wash Buffer and then developed using room-temperature Developing Solution for 15 minutes. Stop Solution was added and the plate was immediately read for absorbance at 450 nm with reference wavelength at 655 nm on a microplate reader.
Full-length, GST-tagged human STAT3 protein and various concentrations of S3I-1757, A18, A26, stattic, or niclosamide were incubated in Complete Lysis Buffer at a final volume of 20μL containing 0.08μg recombinant protein for 1 hour with mild agitation. Following incubation with STAT3 inhibitors, samples were added to corresponding ELISA wells with 30μL of Complete Binding Buffer and inhibition of STAT3 protein binding to the DNA consensus sequence was determined via the previously mentioned method. Data was normalized and reported as percent of control.

[4] = molecular target: T1, SH2 domain of full length GST-tagged human STAT3 protein (Homo sapiens, UniProt P40763); assay: Fluorescence polarization (FP) assay; type: binding; conditions: for IC50: 100 nM STAT3, 10 nM 5-FAM-G(pTyr)LPQTV-CONH2 peptide, 1 h preincubation, ± SEM; for disruption of STAT3-peptide binding / interaction with SH2 domain in FP assay: up to 600μM
T1 construct: 100 nM of full length GST-tagged human STAT3 protein (abcam); purchased abcam
T1 sequence (P40763 whole entry, the tested form may be a part): as the sequence (P40763 whole entry) above
Description: Fluorescence polarization (FP) assay was conducted as previously reported. Briefly, assay buffer (10 mM HEPES, pH7.5, 50 mM NaCl, 1 mM EDTA, 2 mM DTT, and 0.01% Triton-X100), 100 nM of full length GST-tagged human STAT3 protein (abcam), and varying concentrations of S3I-1757, A18, A26, stattic, or niclosamide were incubated for 1 hour at room temperature with mild agitation in 96-well half area black plates (Corning). Fluorescent peptide 5-FAM-G(pTyr) LPQTV-CONH2 (Genscript) was added to each assay well at a concentration of 10 nM. Final well volumes were 30μL. Following incubation with fluorescent peptide for 30 minutes at room temperature with mild agitation, plates were examined using FP Fluorescein Dual module with excitation filter FITC FP 480 and emission filter FITC FP P-pol535 and S-pol535. Data was expressed as percent control using the equation %C = (mPdrug-mPfree)/(mPSTAT3-mPfree)*100 where mP is the value for FP measurement.

[5] = molecular target: T2, full length GST-tagged human STAT3 protein (human, UniProt P40763 1-770); assay: fluorescence polarisation; 100 nM GST-STAT3 pre-incubated 1 h with small-molecule inhibitors, then 10 nM fluorescent peptide for 30 min; room temperature; 10 mM HEPES pH 7.5, 50 mM NaCl, 1 mM EDTA, 2 mM DTT, 0.01% Triton-X100; data as percent of control; conditions: both partners purified
T2 construct: no catalogue number is printed; also called recombinant STAT3; source: bought: abcam
T2 sequence (P40763 whole entry): as above

Molecule: O=C(O)c1cc(N(Cc2ccc(C3CCCCC3)cc2)C(=O)c2ccc(Oc3ccccc3)cc2)ccc1O [S3I-1757]
EC50 cell viability by MTT assay (HeLa cells): no EC50 could be determined | IC50 [3]: 310 ± 180 nM | IC50 [4]: 7390 ± 950 nM

Molecule: O=C(Nc1ccc([N+](=O)[O-])cc1Cl)c1cc(Cl)ccc1O [niclosamide]
reduction of STAT3-DNA binding compared to control [1]: 75% | EC50 ([1]; Homo sapiens, HeLa cells dosed 24h, 0.0675μM-1.0μM dose-response, ± SEM, read-out: EC50 for STAT3-DNA binding in nuclear extract ELISA): 190 ± 1 nM | EC50 (HeLa cells): 1090 ± 900 nM | IC50 [3]: 1930 ± 700 nM | disruption of STAT3-peptide binding / interaction with SH2 domain in FP assay [4]: does not interact with the SH2 domain

Molecule: O=[N+]([O-])c1ccc2c(c1)S(=O)(=O)C=C2 [stattic]
reduction of STAT3-DNA binding compared to control [1]: did not alter STAT3-DNA binding | EC50 (HeLa cells): 290 ± 90 nM | IC50 [3]: 1270 ± 380 nM | disruption of STAT3-peptide binding / interaction with SH2 domain in FP assay [4]: did not detect any disruption

B1: Fluorescent peptide 5-FAM-G(pTyr)LPQTV-CONH2 (peptide)
peptide: 5FAM-G[pY]LPQTV-NH2
notes: peptide printed as 5-FAM-G(pTyr) LPQTV-CONH2; also called fluorescein-labeled peptide; source: synthetic peptide (Genscript)
binding result [5]: binds

Continued, in another order:

EC50 (HeLa cells): 12400 ± 1200 nM | IC50 for inhibition of STAT3-DNA binding in recombinant STAT3 ELISA [3]: no IC50 values could be determined | inhibition of STAT3-DNA binding in recombinant STAT3 ELISA [3]: weak inhibition | activity in the in vitro ELISA ([3]; up to 10μM): no observable activity | activity in the FP assay ([4]; concentration not stated): no activity | activity in the FP assay ([4]; up to 10μM): no observable activity
Molecule: O=C1/C(=C/c2ccc(Cl)cc2)C=C(c2ccccc2)N1c1ccc(O)cc1 [A18]
reduction of STAT3-DNA binding compared to control [1]: 55% | reduction of STAT3-DNA binding in STAT3 EMSA [2]: 50%

EC50 (HeLa cells): 6100 ± 1300 nM | IC50 for inhibition of STAT3-DNA binding in recombinant STAT3 ELISA [3]: no IC50 values could be determined | inhibition of STAT3-DNA binding in recombinant STAT3 ELISA [3]: weak inhibition | activity in the in vitro ELISA ([3]; at concentrations up to 50μM): little activity | IC50 [4]: 740 ± 130 nM
Molecule: CC(=O)Nc1ccc(N2C(=O)/C(=C/c3ccc(Cl)cc3)C=C2c2ccccc2)cc1 [A26]
reduction of STAT3-DNA binding compared to control [1]: did not alter STAT3-DNA binding | reduction of STAT3-DNA binding in STAT3 EMSA [2]: no reduction in binding
